Bounds are passed on as bounds.

A word on the melting point: it is the temperature of the solid-liquid transition. `COc1cc2c(cc1OC)CN(CCc1cccc(NC(=O)c3cccc4c(=O)c5cccc(F)c5[nH]c34)c1)CC2` registered a melting point of 178 °C.
With `Cc1cc(O)ccc1-c1ccc(N)cc1` the figure was 156 to 157 °C.
The compound `Cc1cc(=S)cc(C)n1CCNC(=O)OC(C)(C)C` had a melting point of 175 to 178 °C.
With `CC(=O)c1ccc(-c2ccc(O)c(Br)c2)cc1` the figure was 166 to 170 °C; with `Cc1ccc(C)c(S(=O)(=O)c2ccc(F)c3ccccc23)c1`, 142 to 143 °C; with `CCOc1ccccc1N1CCN(CCCC2CN(C)C(=O)O2)CC1` (stereo unspecified), 79 to 81 °C.
`CCn1cc(C(=O)O)c(=O)c2cc(F)c(-c3ccnc(CNC(=O)OCc4ccccc4)n3)c(F)c21`: the melting point is 195 to 196 °C.
With `C#Cc1c[nH]c2nc(NC(=O)C(C)(C)C)nc(O)c12` the figure was > 300 °C.
Consider `CC1(C)OC(=O)C(=CSCc2cccs2)C(=O)O1`, for which the melting point was in the range of 109 to 111 °C.
With `O=S(=O)(Cl)C=Cc1c(Cl)cccc1Cl` the figure was 88 to 90 °C; with `Nc1sc(-c2ccccc2)c(CN2CCCCC2)c1C(=O)c1ccc(Cl)cc1`, 185 to 187 °C.
In the case of `COc1c(N2CCNCC2)c(F)cc2c(=O)c(C(=O)O)cn(C3CC3)c12`, the melting point lay in the range of 177 to 178 °C.
As for `CSc1nc(NCc2ccc(-c3ccccn3)cc2)n2ncc(C(C)C)c2n1`, the melting point lay within 136 to 138 °C.
The compound `Cc1ccc(Sc2nc(Cl)cc(OCCOc3ccccc3)n2)cc1` returned a melting point of 128 to 132 °C.
With `CCOC(=O)C1=CCCCC1S(=O)(=O)Nn1cccc1C` (stereo unspecified) the figure was 100 to 101 °C; with `O=C(OCc1ccccc1)OCC1OC(n2cc(F)c(=O)[nH]c2=O)C(O)C1O` (stereo unspecified), 66 to 68 °C; with `Cc1cc(-c2nc3cccnn3c2-c2ccnc(NC(=O)c3ccc(C(F)(F)F)nc3)c2)ccc1F`, 225 to 226 °C.
As to `O=c1cc(-c2ccsc2)c2ccc(CCl)cc2o1`, the melting point was 125 to 127 °C.
Compound `Cc1ccc(S(=O)(=O)OCCCn2c(=NC(=O)C(F)(F)F)sc3cc(OC(F)(F)F)ccc32)cc1` registered a melting point of 139 °C.
On to `O=C(c1ccc(F)cc1)N1CCC[C@H](c2noc(Cc3ccccc3)n2)C1`, for which the melting point was found to be 75 °C.
As to `Cc1cc2nc(NC3=NCCN3)[nH]c2cc1C`, the melting point came to 266 °C.
For `NC(Cc1ccc(F)cc1)=NO`, the melting point lay within 104 to 106 °C.
Compound `Cn1cc2ccc(F)cc2c1` yielded a melting point of 60 to 65 °C.
The compound `CC(=O)Nc1ccc2c(c1)OC(C)(C)C=C2` came in with a melting point of 80 to 81 °C.
The compound `Cc1c(-c2ccccc2)sc2nc(N3CCOCC3)[nH]c(=O)c12` returned a melting point of 300 to 320 °C.
With `CC(=O)N[C@@H](CC(C)C)C(=O)N[C@@H](C(C)C)[C@@H](O)c1c(-c2ccccc2)c1=O` the figure was 94 to 105 °C.
`CC1(C)CC(=O)C2C(=NC3=C(C(=O)CC(C)(C)C3)C2c2ccc(C#N)c([N+](=O)[O-])c2)C1` (stereo unspecified) registered a melting point of 274 to 275 °C.
For the compound `O=C(OCc1ccc(OCCCCCCc2ccc(Cl)cc2)cc1)c1cccnc1`, the melting point was in the range of 56 to 57 °C.
`CC(C)(C)OC(=O)N1CCC(c2cn(S(C)(=O)=O)c3ccccc23)CC1` showed a melting point of 136 to 137 °C.
As for `Cc1cccc(N2C(=S)SCC2O)n1` (stereo unspecified), the melting point was determined as 128 °C.
With `CNC(=O)C1CC2(CCN(CCCC(=O)c3ccc(F)cc3)C2)c2ccc(Cl)cc21` (stereo unspecified) the figure was 151 to 153 °C; with `CC(=O)N[C@@H]1c2cc(C#N)ccc2CC(C)(C)[C@H]1O` (relative stereo), 203 to 205 °C; with `OC(Cn1ccnc1)c1ccc2ccccc2c1` (stereo unspecified), 156 to 160 °C.
For the compound `CCC1CC2C3CCC4=CC(=O)CCC4=C3C=CC2(C)C1O` (stereo unspecified), the melting point was in the range of 139 to 141 °C.
`COc1ccc(C(=O)Nc2ccc(F)c(F)c2)cc1NS(=O)(=O)c1ccc([N+](=O)[O-])cc1` came in with a melting point of 234 to 236 °C.
`O=[N+]([O-])c1ccccc1S(=O)(=O)c1ccc(Cl)cc1` registered a melting point of 136 to 138 °C.
As to `COc1ccc(Cn2c(=O)ccc3cnc(Nc4ccccc4)nc32)cc1`, the melting point was 215 to 216 °C.
For the compound `CCOC(=O)CN(SN(C)C(=O)Oc1cccc2c1OC(C)(C)C2)C(=O)CC`, the melting point lay within 108 to 109 °C.
With `O=C1NC(=O)C(=Cc2ccc(N3CCC(NC[C@H](O)COc4cccc5[nH]c(=O)[nH]c45)CC3)c(F)c2)S1` the figure was 162 to 164 °C; with `CCOP(=O)(/C=C/c1cn(C)nc1OCc1ccc(OCc2nc(-c3ccco3)oc2C)c(OC)c1)OCC`, 72 to 73 °C.
For the compound `CS(=O)CC(C)(C)NC(=O)c1c(I)cccc1-c1ccc(C(F)(F)F)cc1` (stereo unspecified), the melting point was 155 to 158 °C.
Consider `Cc1ncc(-c2ccc(Cl)cc2)cc1C(=O)OC(C)(C)C`, for which the melting point lay in the range of 70 to 72 °C.
`CCN(CC)C(=O)Cc1c(-c2ccc(OC)cc2)nn2c(C)cc(C)nc12` displayed a melting point of 120 to 124 °C.
In the case of `O=C1NC(=O)C(=Cc2ccc(-c3cc(C4CCCCC4)c4oc(C(Cl)(Cl)Cl)nc4c3)nc2)S1`, the melting point is 253 °C.
As to `CCCCNC(=O)OC1c2cc(Cl)ccc2C(=O)N1c1ccc2ccc(Cl)nc2n1` (stereo unspecified), the melting point fell in the range of 228 to 230 °C.
For `O=C(O)CN1C(=O)C(=Cc2ccc(OCc3ccc(OC(F)(F)F)cc3)c(OCc3ccccc3)c2)SC1=S`, the melting point lay within 195 to 199 °C.
With `COc1ccc(CC(C(N)=O)S(C)=O)cc1C(=O)NCc1ccc(C(F)(F)F)cc1` (stereo unspecified) the figure was 170 to 171 °C; with `CC1(Br)CCCNC1=O` (stereo unspecified), 107 to 109 °C.
With `C=CCCc1ccc(C#N)c(O)n1` the figure was 122 to 125 °C.
Consider `O=C1CC(c2ccccc2OCc2ccccc2)=Nc2ccc(N3CCCC3)cc21`, for which the melting point is 293 to 295 °C.
As for `CC(=O)Nc1nc(C(Cl)(Cl)Cl)ns1`, the melting point is 193 °C.
Turning to `CCC(O)(CC)[C@H](Nc1nnc(-c2c(OS(=O)(=O)C(F)(F)F)ccc3ccccc23)c2ccccc12)c1ccccc1`, the melting point fell in the range of 117 to 119 °C.
With `O=C(O)Cc1nc(-c2ccc(Cl)cc2)oc1-c1ccoc1` the figure was 218 to 219 °C.
With `O=C(O)Cc1cc(Br)ccc1OCCCc1ccccc1` the figure was 79.5 to 81 °C; with `CCCN(CC)C(=O)c1ccc(CN2C(=O)C(c3ccccc3Cl)(N(C)C)c3cc(Cl)ccc32)cc1` (stereo unspecified), 208 °C.
With `COc1cc2c(cc1Nc1ncc(Cl)c(Nc3ccc(C(N)=O)cc3OC)n1)CCN(CC(=O)N(C)C)CC2` the figure was 113 to 131 °C; with `CCCCCCCNC(=O)N(C)c1cccc(-c2ccc(CCC(=O)O)cc2OC)c1`, 100 to 101 °C.
Regarding `Nc1ccc(SC(F)(F)F)cc1[N+](=O)[O-]`, the melting point worked out at 86 °C.
Turning to `CN(C)Cc1nnc2n1-c1ccc([N+](=O)[O-])cc1C(c1ccccc1)=[N+]([O-])C2`, the melting point lay within 228 to 230 °C.
Take `Cc1ccc(-c2ccc3c(c2)C=C(C(=O)Nc2ccc(CN4CCCCC4)cc2)CCS3)cc1`: the melting point is 203 to 204 °C.
With `COc1cc(N2CCN(C[C@H](C)O)CC2)c(F)cc1Nc1ncc2ccc(-c3ccccc3N(C)S(C)(=O)=O)n2n1` the figure was 116 to 120 °C; with `ON=C(c1ccc(Cl)cc1)C1(n2cncn2)CC1`, 186 to 218 °C.
`Cc1cccc(-n2nc(C)cc2-c2ccnc(N(C)C)c2)c1` returned a melting point of 84 to 85 °C.
With `Cn1nc(Cl)c(C(=O)Cc2ccccc2)c1Cl` the figure was 94 to 96 °C; with `CC(C)(C)c1cc(CN2CC(N(O)C(=O)Oc3ccccc3)C2)cc(C(C)(C)C)c1O`, 161 to 163 °C.
The compound `O=c1c2c(CCc3ccc([N+](=O)[O-])cc3)n[nH]c2c2cccnc2n1-c1ccccc1` registered a melting point of 260 to 262 °C.
With `COc1cc2c(cc1OC)C(CNC=O)c1ccccc1CC2` (stereo unspecified) the figure was 118 to 119 °C; with `CC(C(N)=O)C(=O)Nc1ccc(OCc2cccc(F)c2)cc1` (stereo unspecified), 206 °C; with `CCNc1nc(C)c(-c2ccnc(Nc3ccc(N4CCNCC4)cc3)n2)s1`, 245 to 247 °C.
With `COc1cc(Nc2c(C#N)cnc3cc(-c4csc(C5OCCO5)c4)sc23)c(Cl)cc1Cl` the figure was 219 to 221 °C; with `CCOC(=O)CCc1cn(-c2ccc(Br)cn2)nc1C(C)(C)C`, 94 to 95 °C.
For `N#CC1C(c2ccccc2)N1C(=O)NC(=O)CCl` (stereo unspecified), the melting point fell in the range of 153 to 158 °C.
Regarding `CC(=O)OCCCCCC1CC2=CC(=O)CCC2C2C(F)CC3(C)C(=O)CCC3C12` (stereo unspecified), the melting point is 78.4 °C.
The compound `Cc1cc(C2=NO[C@@](c3cc(Cl)c(F)c(Cl)c3)(C(F)(F)F)C2)ccc1C(=O)NC1CS(=O)(=O)C1` showed a melting point of 134 to 136 °C.
The compound `COc1cccc2c1C(C)C(=O)N2C` (stereo unspecified) gave a melting point of 73 to 74 °C.
With `COc1ccc2c3c(cn2S(=O)(=O)c2c(C(C)C)cc(C(C)C)cc2C(C)C)C[C@H]2N(C)C(=O)CO[C@]2(C)c13` (relative stereo), the melting point was in the range of 155 to 157 °C.
With `COc1cc(OC)nc(NC(=O)NS(=O)(=O)Nc2ccc(F)cc2C(=O)C2CC2)n1` the figure was 76 to 78 °C.
The compound `CCOC(=O)C1C2OC3COC(C)(C)OC3C(OC)C21` (stereo unspecified) yielded a melting point of 65 to 68 °C.
In turn, `CN(C)S(=O)(=O)c1cc(N)c(N)c([N+](=O)[O-])c1` yielded a melting point of 211 to 213 °C.
With `CC1CCN(C(=O)c2ccc([C@H]3CC[C@H](NC[C@H](O)COc4ccc(O)c(NS(C)(=O)=O)c4)CC3)cc2)CC1` the figure was 90 to 100 °C.
Consider `CCN1CCCCC1CCc1ccccc1NC(=O)C=Cc1ccccc1` (stereo unspecified), for which the melting point was 120 to 122 °C.
With `Cc1cc(C)nc(OC(C(=O)O)C(C)(C)C)n1` (stereo unspecified) the figure was 167 to 169 °C.
With `Cc1cc(SC2=C(O)CC(C3CCCC3)(C3CCCC3)OC2=O)c(C(C)(C)C)cc1N` the figure was 163 to 165 °C.
The compound `CCn1c(Oc2cccc(NC(N)=O)c2)nnc1[C@@H](C)NS(=O)(=O)c1ccc(Cl)c(Cl)c1` displayed a melting point of 137 to 138 °C.
With `CCCCCCCNC(=O)Nc1ccccc1C(=O)Nc1ccccn1` the figure was 118 °C; with `CN(C)C(=S)Oc1ccc(C(=O)c2ccc([N+](=O)[O-])cc2)cc1`, 168 °C.

The record behind these values is a melting point compilation (Tetko et al.; mined from patent text by program, amines drawn as free bases though some values may be those of a salt).
